Data from ChEMBL document CHEMBL2331377, “Spirocyclic compounds, potent CCR1 antagonists” (Bioorg Med Chem Lett, 2013).

What was measured:
[1] = target: T1, C-C chemokine receptor type 1 (Homo sapiens, UniProt P32246); experiment: Displacement of [125I]MIP-1alpha from human recombinant CCR1 expressed in HEK293 cells after 1.5 hrs; type: cell-based
T1 sequence (P32246 whole entry): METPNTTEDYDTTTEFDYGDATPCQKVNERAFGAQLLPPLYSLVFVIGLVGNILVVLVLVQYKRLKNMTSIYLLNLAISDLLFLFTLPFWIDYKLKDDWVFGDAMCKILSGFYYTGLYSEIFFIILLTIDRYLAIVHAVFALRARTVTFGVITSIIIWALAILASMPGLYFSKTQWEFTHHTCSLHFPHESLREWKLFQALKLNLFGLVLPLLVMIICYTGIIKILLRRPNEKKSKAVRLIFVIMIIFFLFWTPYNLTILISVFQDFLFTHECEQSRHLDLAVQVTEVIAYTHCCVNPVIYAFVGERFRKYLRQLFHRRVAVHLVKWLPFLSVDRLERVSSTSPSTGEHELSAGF

in vitro [2] = conditions: human, Caco-2
in vitro [3] = conditions: human
in vitro [4] = conditions: human, hepatocytes
in vitro [5] = conditions: rat, hepatocytes
[6] = Clearance in rat liver microsomes; type: ADME, Microsome; conditions: read-out: CLH

SMILES | IC50 [1] | Papp (in vitro [2]) | microsomal CLint (in vitro [3]; liver microsomes) | hepatocyte CLint (in vitro [4]) | hepatocyte CLint (in vitro [5]) | microsomal CLint [6] | microsomal CLint (in vitro [3]; microsomes)
COc1ccc(NC(C)=O)c(OC[C@@H](O)CN2CCC3(CC2)Cc2cc(Cl)ccc2O3)c1 | 900 pM | 24.4 ×10⁻⁶ cm/s | 55 µL/min/mg |  |  |  | 
CC(=O)Nc1ccc(F)cc1OC[C@@H](O)CN1CCC2(CC1)Cc1cc(Cl)ccc1O2 | 640 pM | 17 ×10⁻⁶ cm/s | 13.5 µL/min/mg | 6.1 µL/min/1e6 cells | 17.5 µL/min/1e6 cells |  | 
CC(=O)Nc1ccccc1OC[C@@H](O)CN1CCC2(CC1)Cc1cc(Cl)ccc1O2 | 960 pM | 26 ×10⁻⁶ cm/s | < 17 µL/min/mg | 2.5 µL/min/1e6 cells | 26 µL/min/1e6 cells |  | 
CC(=O)Nc1ccc(F)cc1OC[C@@H](O)CN1CCC2(CC1)Cc1cc(F)ccc1O2 | 360 pM | 18 ×10⁻⁶ cm/s | 17.8 µL/min/mg | 9.3 µL/min/1e6 cells | 12 µL/min/1e6 cells | 29 µL/min/mg | 
CC(=O)Nc1ccccc1OC[C@@H](O)CN1CCC2(CC1)Cc1cc(F)ccc1O2 | 960 pM | 16.5 ×10⁻⁶ cm/s | 25.5 µL/min/mg | 11 µL/min/1e6 cells |  |  | 
CC(=O)Nc1ccc(O)cc1OC[C@@H](O)CN1CCC2(CC1)Cc1cc(Cl)ccc1O2 |  |  | < 10 µL/min/mg | < 3 µL/min/1e6 cells | 25.7 µL/min/1e6 cells |  | 
CC(=O)Nc1ccc(O)cc1OC[C@@H](O)CN1CCC2(CC1)Cc1cc(F)ccc1O2 |  | 6.6 ×10⁻⁶ cm/s |  | < 3.6 µL/min/1e6 cells | 17.6 µL/min/1e6 cells |  | < 10 µL/min/mg
COc1ccc(NC(C)=O)c(OC[C@@H](N)CN2CCC3(CC2)Cc2cc(Cl)ccc2O3)c1 | 6000 pM |  | 12.6 µL/min/mg |  |  |  | 
COc1ccc(NC(C)=O)c(OC[C@@H](N)CN2CCC3(CC2)Cc2cc(F)ccc2O3)c1 | 9000 pM |  | 17.4 µL/min/mg | 3.5 µL/min/1e6 cells |  |  | 
COc1ccc(NC(C)=O)c(OC[C@@H](N)CN2CCC3(CC2)Cc2ccccc2O3)c1 | 32000 pM |  | 18.8 µL/min/mg |  |  |  | 
CC(=O)Nc1ccc(O)cc1OC[C@@H](N)CN1CCC2(CC1)Cc1cc(Cl)ccc1O2 | 790 pM | 2.7 ×10⁻⁶ cm/s | < 10 µL/min/mg | < 3 µL/min/1e6 cells | 4.2 µL/min/1e6 cells | < 10 µL/min/mg | 
CC(=O)Nc1ccc(O)cc1OC[C@@H](N)CN1CCC2(CC1)Cc1cc(F)ccc1O2 | 1400 pM | 2.7 ×10⁻⁶ cm/s | < 10 µL/min/mg | < 3 µL/min/1e6 cells | < 3 µL/min/1e6 cells | < 10 µL/min/mg | 
CC(=O)Nc1ccc(O)cc1OC[C@@H](N)CN1CCC2(CC1)Cc1ccccc1O2 | 18000 pM | 1.6 ×10⁻⁶ cm/s | < 10 µL/min/mg | < 3 µL/min/1e6 cells | 6.6 µL/min/1e6 cells | 14 µL/min/mg | 
